From patent EP4737449A1 (Changchun Genescience Pharmaceutical Co., Ltd., priority 2023, dated 2025)
Where two headings read alike, the source gives them in different places.

Columns and labels:
[1] = molecular target: CYP 3A4 enzyme in human liver microsomes (Homo sapiens, UniProt P08684); assay: CYP3A4 inhibition experiment in human liver microsomes
Experimental: The inhibitory effects of the test compounds on CYP 3A4T (with testosterone as substrate) and 3A4M (with midazolam as substrate) in human liver microsomes were evaluated in vitro to assess the medication safety of the compounds.
This study used the human liver microsome system and the cytochrome P450 enzyme probe substrate recommended by FDA guidelines for in vitro drug interaction studies to investigate the inhibition of the CYP 3A4 enzyme in human liver microsomes by the test compounds.
Test group (TG): Human liver microsomes were incubated with different concentrations of test compounds, NADPH (final concentration 2.00 mM) and probe substrates of different sub-enzymes (Table 4) for 5 min.
Positive control group (PC): Human liver microsomes were incubated with inhibitors (Table 4), NADPH (final concentration 2.00 mM) and probe substrates of different sub-enzymes (Table 4) for 5 min. Table 4 Probe substrates of sub-enzymes, inhibitors and incubation systems
The system was pre-incubated at 37°C for 5 min, and then 15 µL of 8 mM NADPH solution preheated at 37°C for 5-10 min to start the reaction. After incubation of the 96-well plate at 37°C for 5 min, 180 µL of acetonitrile:methanol (ACN:MeOH=1:1) solution containing internal standard (IS) was added to terminate the reaction. […] 80 µL of the supernatant was taken, added to 120 µL of ultrapure water, shaken evenly, and then detected by LC-MS/MS.
199 µL of 0.2 mg/mL HLM and 1 µL of 1 mM positive control inhibitor (ketoconazole) working solutions were taken and mixed evenly. 30 µL of the drug-containing liver microsome solution was taken and added to a 96-well plate, then 10 µL of substrate working solution (20 µM midazolam) was added, in duplicate. The system was pre-incubated at 37°C for 5 min, and then 15 µL of 8 mM NADPH solution preheated at 37°C for 5-10 min to start the reaction. After incubation of the 96-well plate at 37°C for 5 min, 180 µL of ACN:MeOH(1:1) solution containing IS was added to terminate the reaction. […] 80 µL of the supernatant was taken, added to 120 µL of ultrapure water, shaken evenly, and then detected by LC-MS/MS.
4.2.5.1 The relative activity of CYP450 sub-enzymes at different concentrations was calculated by dividing the peak area ratio (analyte peak area/internal standard peak area) of metabolites in the presence of the test sample or positive control by the peak area ratio of metabolites in the solvent control sample in the absence of the test article or positive control, according to the following formula: [formula] [formula]
4.2.5.2 Half maximal inhibitory concentration (IC50) was obtained by fitting according to the following model formula using Prism software: Y = Bottom + (Top−Bottom)/(1+10^(∧)((LogIC50−X)×HillSlope)) [formula]
X is the test sample concentration converted to logarithm (Log µM), Y is the relative activity (% of NC), Bottom and Top represent the percentage of enzyme activity at the bottom platform and top platform of the curve, respectively, and HillSlope represents the slope; to optimize the fitting effect, the use of other (nonlinear) dose-response models for fitting is not considered as a deviation from the protocol.

NUGC-3 cells = assay: NUGC-3 cell proliferation assay (CTG, 7 days); assay type: cell-based, human; conditions: Homo sapiens, NUGC-3, 168 h
Outline: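 Cells (200/well) in 1640 medium with 10% serum exposed to 10-point, 3-fold DMSO dilutions (duplicates) for 7 days at 37°C. Viability read by CellTiter-Glo luminescence; % inhibition normalized to DMSO and blank, IC50 from variable-slope nonlinear fit.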

[2] = CYP 3A4M IC50, human liver microsomes, midazolam as substrate
[3] = CYP 3A4T IC50, human liver microsomes, testosterone as substrate
[4] = NUGC-3 cell proliferation, 7 days, CTG, read-out: IC50

CYP 3A4 enzyme in human liver microsomes, sequence (P08684 whole entry): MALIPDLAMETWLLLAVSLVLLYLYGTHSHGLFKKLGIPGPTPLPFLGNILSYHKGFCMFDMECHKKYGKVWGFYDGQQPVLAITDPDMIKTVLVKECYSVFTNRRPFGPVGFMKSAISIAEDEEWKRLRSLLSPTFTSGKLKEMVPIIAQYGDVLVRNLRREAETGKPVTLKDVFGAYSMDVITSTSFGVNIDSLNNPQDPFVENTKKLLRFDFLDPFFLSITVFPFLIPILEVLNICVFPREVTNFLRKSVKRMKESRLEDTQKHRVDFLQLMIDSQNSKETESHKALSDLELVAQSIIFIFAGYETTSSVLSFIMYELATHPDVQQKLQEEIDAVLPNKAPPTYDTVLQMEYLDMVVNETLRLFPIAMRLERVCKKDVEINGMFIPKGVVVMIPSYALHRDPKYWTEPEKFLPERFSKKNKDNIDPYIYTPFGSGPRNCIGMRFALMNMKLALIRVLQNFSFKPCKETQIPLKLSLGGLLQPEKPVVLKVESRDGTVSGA

SMILES	IC50 [1, 2] [µM]	IC50 [1, 3] [µM]	IC50 (NUGC-3 cells; [4]) [nM]	IC50 (NUGC-3 cells) [nM]
CN1CC[C@@H](Nc2cccc3c(CC(F)(F)F)c(C#CCNC(=O)c4cnn(C(C)(C)C)c4)nn23)[C@@H](F)C1 [Compound 001, 1-tert-butyl-N-[3-(7-{[(3S,4R)-3-fluoro-1-methylpiperidin-4-yl]amino}-3-(2,2,2-trifluoroethyl)pyrazolo[1,5-a]pyridin-2-yl)prop-2-yn-1-yl]-1H-pyrazole-4-carboxamide]	26.3	27.2	387	
CN1CC[C@@H](Nc2cccc3c(CC(F)(F)F)c(C#CCNC(=O)c4cnn(C(C)(C)C)c4N)nn23)[C@@H](F)C1 [Compound 047]	20.7	17.3		129
CCn1ncc(C(=O)NCC#Cc2nn3c(N[C@@H]4CCN(C)C[C@@H]4F)cccc3c2CC(F)(F)F)c1N [Compound 261, 5-amino-1-ethyl-N-[3-(7-{[(3S,4R)-3-fluoro-1-methylpiperidin-4-yl]amino}-3-(2,2,2-trifluoroethyl)pyrazolo[1,5-a]pyridin-2-yl)prop-2-yn-1-yl]-1H-pyrazole-4-carboxamide]	15.6	7.4		172
CNC(=O)c1ccc(NCC#Cc2cc3c(N[C@@H]4CCN(C)C[C@@H]4F)cccc3n2CC(F)(F)F)c(OC)c1 [Control compound, reference compound]	9.4	4.3	384	
